Inconclusive results and toxic doses are left out. Rule as the data show it: active = T/C of 150% or more; inactive = T/C below 125%.
Test system: L1210 leukemia ip in BDF1 mice, survival T/C
Test: NCI In Vivo Anticancer Drug Screen. Data for tumor model L1210 Leukemia (intraperitoneal) in B6D2F1 (BDF1) mice
Details: endpoint: mean survival time, higher = longer survival
Summary of the method: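 Tumor cells were implanted, animals were treated, and survival was followed. The result divides the treated measurement by the vehicle-control measurement.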

[1] = dose: 100.0 mg/kg/injection, schedule: Q04DX003 (ip), vehicle: saline with Tween-80
[2] = dose: 200.0 mg/kg/injection, schedule: Q04DX003 (ip), vehicle: saline with Tween-80
[3] = dose: 400.0 mg/kg/injection, schedule: Q04DX003 (ip), vehicle: saline with Tween-80
[4] = dose: 100.0 mg/kg/injection, schedule: Q01DX001 (ip), vehicle: saline
[5] = dose: 100.0 mg/kg/injection, schedule: Q01DX009 (ip), vehicle: saline with Tween-80
[6] = dose: 200.0 mg/kg/injection, schedule: Q01DX001 (ip), vehicle: saline
[7] = dose: 200.0 mg/kg/injection, schedule: Q01DX009 (ip), vehicle: saline with Tween-80
[8] = dose: 400.0 mg/kg/injection, schedule: Q01DX001 (ip), vehicle: saline
[9] = dose: 50.0 mg/kg/injection, schedule: Q01DX001 (ip), vehicle: saline
[10] = dose: 30.0 mg/kg/injection, schedule: Q01DX Z (ip), vehicle: saline
[11] = dose: 100.0 mg/kg/injection, schedule: Q01DX009 (ip), vehicle: Klucel (hydroxypropylcellulose) (HPC)
[12] = dose: 200.0 mg/kg/injection, schedule: Q01DX009 (ip), vehicle: Klucel (hydroxypropylcellulose) (HPC)
[13] = dose: 400.0 mg/kg/injection, schedule: Q01DX009 (ip), vehicle: Klucel (hydroxypropylcellulose) (HPC)
[14] = dose: 12.5 mg/kg/injection, schedule: Q04DX003 (ip), vehicle: saline
[15] = dose: 50.0 mg/kg/injection, schedule: Q01DX009 (ip), vehicle: saline with Tween-80
[16] = dose: 50.0 mg/kg/injection, schedule: Q01DX009 (ip), vehicle: Klucel (hydroxypropylcellulose) (HPC)
[17] = dose: 200.0 mg/kg/injection, schedule: Q04DX002 (ip), vehicle: Klucel (hydroxypropylcellulose) (HPC)

Measured: T/C

CCOC(=O)Nc1ccc([N+](=O)[O-])cc1[N+](=O)[O-]
inactive: dose: 100.0 mg/kg/injection, schedule: Q01DX001 (ip), vehicle: saline with Tween-80 101 % of control | [1] 100 % of control | dose: 200.0 mg/kg/injection, schedule: Q01DX001 (ip), vehicle: saline with Tween-80 98 % of control | [2] 93 % of control | dose: 400.0 mg/kg/injection, schedule: Q01DX001 (ip), vehicle: saline with Tween-80 95 % of control | [3] 98 % of control

COc1ccc(C=NCCN=Cc2ccc(OC)c(OC)c2)cc1OC
inactive: [4] 100 % of control | [5] 101 % of control | dose: 100.0 mg/kg/injection, schedule: Q04DX003 (ip), vehicle: saline 92 % of control | [6] 104 % of control | [7] 95 % of control | dose: 200.0 mg/kg/injection, schedule: Q04DX003 (ip), vehicle: saline 87 % of control | [8] 102 % of control | dose: 400.0 mg/kg/injection, schedule: Q01DX009 (ip), vehicle: saline with Tween-80 95 % of control | dose: 400.0 mg/kg/injection, schedule: Q04DX003 (ip), vehicle: saline 92 % of control

Cn1c(=O)c2[nH]c(C3CC4C5CCC(C5)C4C3)nc2n(C)c1=O (configuration not stated)
inactive: [9] 100 % of control | [4] 108 % of control | [6] 100 % of control | [8] 96 % of control

c1ccc(-c2noc(-c3ccccc3)n2)cc1
inactive: dose: 62.5 mg/kg/injection, schedule: Q04DX002 (ip), vehicle: Klucel (hydroxypropylcellulose) (HPC) 90 % of control | dose: 125.0 mg/kg/injection, schedule: Q04DX002 (ip), vehicle: Klucel (hydroxypropylcellulose) (HPC) 87 % of control | dose: 250.0 mg/kg/injection, schedule: Q04DX002 (ip), vehicle: Klucel (hydroxypropylcellulose) (HPC) 93 % of control

NCC(=O)NCCCCCCCCCCNC(=O)CN
inactive: dose: 10.0 mg/kg/injection, schedule: Q01DX Z (ip), vehicle: saline 98 % of control | [10] 95 % of control | dose: 100.0 mg/kg/injection, schedule: Q01DX Z (ip), vehicle: saline 98 % of control

COC(=O)c1nn2c(=O)c3cccc4cccc(c43)c2c1C(=O)OC
inactive: [11] 95 % of control | [12] 98 % of control | [13] 100 % of control

CCCCn1c(=O)cc(C(=O)O)c2ccccc21
inactive: [1] 101 % of control | [2] 101 % of control | [3] 95 % of control

c1cc(-c2ccc(C3=NCCN3)cc2)ccc1C1=NCCN1
inactive: dose: 15.0 mg/kg/injection, schedule: Q01DX Z (ip), vehicle: saline 104 % of control | [10] 104 % of control | dose: 60.0 mg/kg/injection, schedule: Q01DX Z (ip), vehicle: saline 87 % of control

Cc1cc(Br)c(O)c(Br)c1
inactive: dose: 75.0 mg/kg/injection, schedule: Q01DX001 (ip), vehicle: Klucel (hydroxypropylcellulose) (HPC) 99 % of control | dose: 150.0 mg/kg/injection, schedule: Q01DX001 (ip), vehicle: Klucel (hydroxypropylcellulose) (HPC) 100 % of control | dose: 300.0 mg/kg/injection, schedule: Q01DX001 (ip), vehicle: Klucel (hydroxypropylcellulose) (HPC) 95 % of control

OCC(F)(F)C(F)F
inactive: [9] 91 % of control | [4] 94 % of control | [6] 91 % of control | [8] 100 % of control

O=C(CCl)N1CCC(CC2(c3cc4ccccc4[nH]3)OCCO2)CC1
inactive: dose: 100.0 mg/kg/injection, schedule: Q04DX002 (ip), vehicle: other 97 % of control | dose: 200.0 mg/kg/injection, schedule: Q04DX002 (ip), vehicle: other 90 % of control | dose: 400.0 mg/kg/injection, schedule: Q04DX002 (ip), vehicle: other 94 % of control

CCCCC(=O)N/N=C\c1cccc(OCc2ccccc2)c1
inactive: [4] 107 % of control | [6] 102 % of control | [8] 109 % of control

CC/C(C)=N\NC(=O)CC(=O)N/N=C(/C)CC
inactive: [11] 95 % of control | [12] 101 % of control | [13] 100 % of control

O=C(NOCCCl)Nc1ccccc1
inactive: dose: 125.0 mg/kg/injection, schedule: Q01DX Z (ip), vehicle: carboxymethylcellulose (CMC) 96 % of control | dose: 200.0 mg/kg/injection, schedule: Q01DX Z (ip), vehicle: carboxymethylcellulose (CMC) 96 % of control | dose: 250.0 mg/kg/injection, schedule: Q01DX Z (ip), vehicle: carboxymethylcellulose (CMC) 107 % of control | dose: 500.0 mg/kg/injection, schedule: Q01DX Z (ip), vehicle: carboxymethylcellulose (CMC) 95 % of control

NC(N)=N/N=C/c1ccc2c(c1)CCC2
inactive: [14] 101 % of control | dose: 25.0 mg/kg/injection, schedule: Q04DX003 (ip), vehicle: saline 97 % of control | dose: 50.0 mg/kg/injection, schedule: Q04DX003 (ip), vehicle: saline 97 % of control

COc1ccc(C)cc1NC(=O)OCCOc1ccc([N+](=O)[O-])cc1
inactive: [15] 93 % of control | [5] 97 % of control | [7] 93 % of control

O=C1c2ccccc2C(=O)c2c1ccc1c2CCCC1
inactive: [16] 91 % of control | [11] 94 % of control | [12] 100 % of control

CCOC(=O)c1[nH]c2ccsc2c1CN1CCCCC1
inactive: dose: 50.0 mg/kg/injection, schedule: Q01DX001 (ip), vehicle: Klucel (hydroxypropylcellulose) (HPC) 93 % of control | dose: 100.0 mg/kg/injection, schedule: Q01DX001 (ip), vehicle: Klucel (hydroxypropylcellulose) (HPC) 101 % of control

Cc1cc(Br)ccc1NC(=O)/C=C/C(=O)O
inactive: dose: 100.0 mg/kg/injection, schedule: Q04DX002 (ip), vehicle: Klucel (hydroxypropylcellulose) (HPC) 114 % of control | [17] 95 % of control | dose: 400.0 mg/kg/injection, schedule: Q04DX002 (ip), vehicle: Klucel (hydroxypropylcellulose) (HPC) 100 % of control

Nc1cc(N2CCCC2)nc(-c2ccccc2)n1
inactive: [15] 98 % of control | [5] 95 % of control

O=C(O)CC(C(=O)O)c1ccccc1 (configuration not stated)
inactive: [1] 88 % of control | [2] 103 % of control | [3] 106 % of control

O=C(/C=C/c1cccc([N+](=O)[O-])c1)c1cccc([N+](=O)[O-])c1
inactive: dose: 12.5 mg/kg/injection, schedule: Q01DX009 (ip), vehicle: Klucel (hydroxypropylcellulose) (HPC) 94 % of control | dose: 25.0 mg/kg/injection, schedule: Q01DX009 (ip), vehicle: Klucel (hydroxypropylcellulose) (HPC) 92 % of control | dose: 25.0 mg/kg/injection, schedule: Q04DX003 (ip), vehicle: Klucel (hydroxypropylcellulose) (HPC) 94 % of control | [16] 87 % of control | dose: 50.0 mg/kg/injection, schedule: Q04DX003 (ip), vehicle: Klucel (hydroxypropylcellulose) (HPC) 103 % of control

Cc1cccc(NC(=O)c2cccc(F)c2)c1C
inactive: [11] 105 % of control | [12] 100 % of control | [13] 94 % of control

c1ccc2c(c1)ccc1cc3cc4cc5c(ccc6ccccc65)cc4cc3cc12
inactive: dose: 50.0 mg/kg/injection, schedule: Q04DX002 (ip), vehicle: Klucel (hydroxypropylcellulose) (HPC) 93 % of control | [17] 90 % of control

CCC[N+](C)(C)CCCCOCCCC[N+](C)(C)CCC
inactive: dose: 3.12 mg/kg/injection, schedule: Q01DX009 (ip), vehicle: saline 104 % of control | dose: 6.25 mg/kg/injection, schedule: Q01DX009 (ip), vehicle: saline 92 % of control | dose: 12.5 mg/kg/injection, schedule: Q01DX009 (ip), vehicle: saline 103 % of control | [14] 95 % of control

Reference: PubChem BioAssay AID248 (DTP/NCI, 2004)
